According to BindingDB's records for doi:10.1016/j.ejmech.2009.11.010 (Chinese Academy of Sciences, 2010):

Each compound was assayed against T1, Cathepsin K (Homo sapiens, UniProt P43235) (assay: Inhibition of human cathepsin K).
T1 sequence (P43235 whole entry): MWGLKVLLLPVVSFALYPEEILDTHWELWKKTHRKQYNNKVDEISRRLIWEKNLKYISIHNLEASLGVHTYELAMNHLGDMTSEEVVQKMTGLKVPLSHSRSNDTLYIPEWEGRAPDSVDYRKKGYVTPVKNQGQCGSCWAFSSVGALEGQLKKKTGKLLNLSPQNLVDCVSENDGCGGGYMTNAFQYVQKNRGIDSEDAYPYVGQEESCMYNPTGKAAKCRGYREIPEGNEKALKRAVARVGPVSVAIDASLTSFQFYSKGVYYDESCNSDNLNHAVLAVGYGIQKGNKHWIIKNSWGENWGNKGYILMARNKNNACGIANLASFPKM

SMILES	IC50 [pM]
CCCC[C@H](NC(=O)O[C@H](Cc1nnc(-c2ccc(F)cc2)o1)C(C)(C)C)C(=O)C(=O)NCc1cccnc1 [(R)-1-(5-(4-fluorophenyl)-1,3,4-oxadiazol-2-yl)-3,3-dimethylbutan-2-yl(S)-1,2-dioxo-1-(pyridin-3-ylmethylamino)heptan-3-ylcarbamate]	2820
CCCC[C@H](NC(=O)O[C@H](Cc1nnc(-c2ccccc2)o1)C(C)(C)C)C(=O)C(=O)N[C@H](C)c1ccccc1 [(R)-3,3-dimethyl-1-(5-phenyl-1,3,4-oxadiazol-2-yl)butan-2-yl(S)-1,2-dioxo-1-((R)-1-phenylethylamino)heptan-3-ylcarbamate]	240
CCCC[C@H](NC(=O)O[C@H](CN1CCN(c2ccc(C(F)(F)F)cc2)C1=O)C(C)(C)C)C(=O)C(=O)Nc1ccn[nH]1 [(S)-3,3-dimethyl-1-(2-oxo-3-(4-(trifluoromethyl)phenyl)imidazolidin-1-yl)butan-2-yl(S)-1-(1H-pyrazol-5-ylamino)-1,2-dioxoheptan-3-ylcarbamate]	339
CCCC[C@H](NC(=O)O[C@@H](Cc1nnc(-c2ccccc2)o1)C(C)(C)C)C(=O)C(=O)N[C@H](C)c1ccccc1 [[(S)-1-(1-Phenyl-ethylaminooxalyl)-pentyl]-carbamic acid (S)-2,2-dimethyl-1-(5-phenyl-[1,3,4]oxadiazol-2-ylmethyl)-propyl ester]	457000
CCCC[C@H](NC(=O)O[C@H](Cc1nnc(-c2ccc(C(F)(F)F)cc2)o1)C(C)(C)C)C(=O)C(=O)Nc1ccn[nH]1 [[(S)-1-(2H-Pyrazol-3-ylaminooxalyl)-pentyl]-carbamic acid (R)-2,2-dimethyl-1-[5-(4-trifluoromethyl-phenyl)-[1,3,4]oxadiazol-2-ylmethyl]-propyl ester]	28.8

The next lines start with the values.

IC50 [pM]	SMILES
129	CCCC[C@H](NC(=O)O[C@H](Cc1nnc(-c2ccc(C(F)(F)F)cc2)o1)C(C)(C)C)C(=O)C(=O)NN1CCOC1=O [(1R)-2,2-DIMETHYL-1-({5-[4-(TRIFLUOROMETHYL)PHENYL]-1,3,4-OXADIAZOL-2-YL}METHYL)PROPYL (1S)-1-{OXO[(2-OXO-1,3-OXAZOLIDIN-3-YL)AMINO]ACETYL}PENTYLCARBAMATE]
372	CCCC[C@H](NC(=O)O[C@H](Cc1nnc(-c2ccc(F)cc2)o1)C(C)(C)C)C(=O)C(=O)N[C@H](C)c1ccccc1 [[(S)-1-(1-Phenyl-ethylaminooxalyl)-pentyl]-carbamic acid (R)-1-[5-(4-fluoro-phenyl)-[1,3,4]oxadiazol-2-ylmethyl]-2,2-dimethyl-propyl ester]
407	CCCC[C@H](NC(=O)O[C@H](Cc1nnc(-c2ccc(C(F)(F)F)cc2)o1)C(C)(C)C)C(=O)C(=O)N[C@H](C)c1ccccc1 [[(S)-1-(1-Phenyl-ethylaminooxalyl)-pentyl]-carbamic acid (R)-2,2-dimethyl-1-[5-(4-trifluoromethyl-phenyl)-[1,3,4]oxadiazol-2-ylmethyl]-propyl ester]
5750	CCCC[C@H](NC(=O)O[C@H](Cn1cnc(-c2ccc(C(F)(F)F)cc2)c1)C(C)(C)C)C(=O)C(=O)Nc1nccs1 [[(S)-1-(Thiazol-2-ylaminooxalyl)-pentyl]-carbamic acid (S)-2,2-dimethyl-1-[4-(4-trifluoromethyl-phenyl)-imidazol-1-ylmethyl]-propyl ester]
